Test results: patent publication US9334272B2, “Derivatives of purinic and pyrimidinic antiviral agents and use thereof as potent anticancer agents” (Ramot at Tel-Aviv University Ltd., priority 2007, dated 2016)

Tests used:
[1] = tested on: kinases which phosphorylate acyclovir; assay: Acyclovir phosphorylation (viral thymidine kinase activity) in 4T1 cell extracts; assay type: cell-based, murine; conditions: 4T1 cells, 24 hours, 40 μM
Experimental: The mammalian thymidine kinase (TK) has a narrow specificity and acts only on thymidine. […] The lysates obtained were kept at −70 ° C. until analyzed either spectroscopically or by RT-PCR. […] The ADP is converted to ATP by pyruvate kinase when it hydrolyzes phosphoenolpyruvate (PEP) to pyruvate. Lactate dehydrogenase then converts pyruvate to lactate and NADH to NAD^+. The decrease in fluorescence emitted by NADH (excitation/emission of 320/460 nm) during 10 cycles, each lasting 1 minute, were monitored using a FluoStar fluorometer. The reaction velocity was determined by the slope of the fluorescence vs. time.

U-251 cells [2] = assay: Cell cycle analysis (propidium iodide flow cytometry), U-251 cells; assay type: cell-based, human; conditions: 24 hours
Experimental: Cells (4×10^5) were seeded in 35 mm culture dishes and after 24 hours were starved in medium without serum for an additional 24 hours, and then treated with the drug for an additional 24 hours. The cells were then trypsinized to a single cell suspension in PBS, washed, and resuspended in PBS at a concentration of 10^6 cells/mL. The cells were fixed with 70% ethanol for 30 minutes at 4° C., centrifuged and resuspended in 1 ml PBS containing 0.1% Tween 20 and 0.05% bovine serum albumin (BSA). RNase free of DNase was added, and the cell suspension (10^6 cells) was incubated at […] for 30 minutes. The cell suspension was then chilled on ice to a temperature in the range of 2 to 8° C. Propidium iodide (50 μg/mL) was added to the cell suspension, which was than kept in the dark. Red fluorescence (>630 nm) was analyzed on the flow cytometer.

proteasome = molecular target: T1, proteasome (Homo sapiens, UniProt P28074); assay: Proteasome activity assay, U-251 cells; assay type: cell-based; conditions: 4 or 24 hours, alone or in combination
T1 construct: proteasome activity in U-251 cells treated for 4 or 24 hours; endogenous in cells; host or cells: U-251 cells (lysates of treated cells)
T1 sequence (P28074 60-263): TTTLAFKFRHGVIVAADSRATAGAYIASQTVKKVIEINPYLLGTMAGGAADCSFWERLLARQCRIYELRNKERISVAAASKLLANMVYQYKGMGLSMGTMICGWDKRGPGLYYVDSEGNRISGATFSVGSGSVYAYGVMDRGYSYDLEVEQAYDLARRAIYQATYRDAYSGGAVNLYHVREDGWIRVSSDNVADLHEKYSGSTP
Experimental: The peptidase or chymotrypsin-like activity of the proteasome was assayed using N-succinyl-Leu-Leu-Val-Tyr-7-amido-4-methylcoumarin. The lysates (100 μL) were incubated with 13 (M of the substrate in 100 mM Tris, pH 7.5, for 1 hour with shaking at room temperature. The reaction was stopped by addition of ice-cold ethanol, and the samples were centrifuged for 5 minutes at 2500 g. The supernatants were collected and the fluorescence was measured with excitation/emission filters of 390/460 nm using the FluoStar fluorimeter. The protein concentration was determined using a BCATM kit (Pierce) and the proteasome activity was derived from the ratio of fluorescence at 460 nm/(g of protein. The percentage of proteasome activity was calculated relative to untreated cells.

U-251 cells [3] = assay: Reactive oxygen species by DCF-DA FACS, U-251 cells; assay type: cell-based, human; conditions: 2 hour treatment
Experimental: ROS levels were determined by FACS analysis of U-251 cells treated with dichlorodihydrofluorescein diacetate (DCF-DA), which becomes fluorescent when oxidized.

herpes virus = conditions: Brigden & Whiteman, 1983; cited from earlier work
U-251 cells [4] = assay: Apoptosis/cell death by annexin V-FITC and propidium iodide FACS, U-251 cells; assay type: cell-based; conditions: Homo sapiens; U-251 glioblastoma cells, 50 μM, 24 hours (untreated 9%)
Experimental: Cells were seeded in six-well plates (10^5 cells/well) for 24 hours and were then treated as specified, trypsinized, washed with PBS, double-stained with annexin V-FITC (fluorescein isothiocyanate) and propidium iodide, according to the manufacturer's instructions and subjected to flow cytometry analysis (FACScalibur cytometer, Becton Dickinson).

22RV1 cells = assay: Hoechst viability assay, 22RV1 prostate carcinoma cells; assay type: cell-based, human; conditions: 72 hours, Hoechst
Experimental: (§1) Cells (in quadruplicate) at the specified density were suspended in 200 μL medium supplemented with 10% FCS seeded in 96-well plates for 24 hours, then exposed to the drugs for 72 hours. The viability of the cells was determined by Hoechst fluorescent assay as described by Nudelman et al., 2005. Leukemic cell viability after 72 hours of treatment was determined by an MTT (3-(4,5-dimethylthiazol-2-yl)-2,5-diphenyltetrazolium bromide) assay as described by Levovich et al., 2007.
(§2) IC50 values were determined by linear regression of the percentage of survival following drug titration.

U-251 cells [5] = assay: Mitochondrial membrane potential (JC-1 staining), U-251 cells; assay type: cell-based, human; conditions: 60 μM, 24 hour treatment
U-251 cells [6] = assay: Hoechst viability assay, U-251 glioma cells; assay type: cell-based, human; conditions: 72 hours, Hoechst
Experimental: as §1, §2

acetylated histone H4 = assay: Histone H4 acetylation Western blot, U-251 cells; assay type: cell-based, human; conditions: 2-4 hours of treatment
Experimental: For the determination of in vitro histone acetylation, 2.5-3×10^6 cells, seeded in 100 mm culture dishes, were supplemented with RPMI medium containing 10% heat inactivated FCS and were treated with the drugs the following day. At the specified times post-treatment, the cells were removed with a rubber policeman, centrifuged, washed, lysed with lysis buffer (PBS, Nonidet® NP-40 1%, sodium deoxycholate 0.5%, sodium dodecyl sulfate (SDS) 0.1%, 1 mM phenylmethylsulfonyl fluoride (PMSF), 1 mM sodium orthovanadate, and 1 μM each of leupeptin and pepstatin) and centrifuged at 10,000 g for 10 minutes at 4° C. […] The extract was then lyophilized, and protein concentration was determined with a BCA kit (Pierce, USA). […] The fold increase of acetylated histones was determined by the ratio of band intensities of treated and untreated cells or mice, normalized to loading control (total histone H3).
Cell lysates or acid extracted histones were solubilized in a concentrated (×4) loading buffer (62.5 mM Tris-HCl, pH 6.8, 1% SDS, 10% glycerol v/v, 1% dithiothreitol (DTT) and 0.1 mg/ml bromophenol blue). […] The membrane was exposed for 5 minutes to Chemiluminescence BioMax light film (Kodak, USA) and the intensity of the bands was measured with a VersaDoc instrument with a Quantityl program (Bio-Rad, USA). […]

Nc1nc2c(ncn2COCCO)c(=O)[nH]1 [acyclovir, reference compound]
rate of acyclovir phosphorylation (kinase activity) [1]: no effect on the kinase activity | phase of cell-cycle arrest (U-251 cells [2]; 1 mM): S phase | Percentage of cells in G0-G1 stage (U-251 cells [2]; 1000 μM): 14.1% | Percentage of cells in G2-M stage (U-251 cells [2]; 1000 μM): 12.2% | Percentage of cells in S stage (U-251 cells [2]; 1000 μM): 73.6% | inhibitory effect on proteasome activity (proteasome): only a marginal inhibitory effect | level of oxidation in cells (ROS) (U-251 cells [3]): little if any effect | inhibition of herpes virus replication at concentrations lower than those inhibiting mammalian cellular functions (herpes virus): 300-3000 fold | mortality at 50 µM (U-251 cells [4]): 11% | IC50 (22RV1 cells): could not be reached | mitochondrial membrane potential (U-251 cells [5]): no apparent effect | IC50 (U-251 cells [6]): could not be reached | acetylation of histone H4 (acetylated histone H4): did not
